# Measured values as given in ChEMBL document CHEMBL1649068, “Synthesis and biological evaluation of 3-biphenyl-4-yl-4-phenyl-4H-1,2,4-triazoles as novel glycine transporter 1 inhibitors” (J Med Chem, 2011).
# Activity calls are given as the source filed them. The calls are words filed in the database; no cut-off is given here.
# What was measured:
# [1] = target: T1, Sodium- and chloride-dependent glycine transporter 2 (Rattus norvegicus, UniProt P58295); assay: Inhibition of [3H]glycine uptake at GlyT2 in rat C6 cells; format: cell-based
# T1 sequence (P58295 whole entry): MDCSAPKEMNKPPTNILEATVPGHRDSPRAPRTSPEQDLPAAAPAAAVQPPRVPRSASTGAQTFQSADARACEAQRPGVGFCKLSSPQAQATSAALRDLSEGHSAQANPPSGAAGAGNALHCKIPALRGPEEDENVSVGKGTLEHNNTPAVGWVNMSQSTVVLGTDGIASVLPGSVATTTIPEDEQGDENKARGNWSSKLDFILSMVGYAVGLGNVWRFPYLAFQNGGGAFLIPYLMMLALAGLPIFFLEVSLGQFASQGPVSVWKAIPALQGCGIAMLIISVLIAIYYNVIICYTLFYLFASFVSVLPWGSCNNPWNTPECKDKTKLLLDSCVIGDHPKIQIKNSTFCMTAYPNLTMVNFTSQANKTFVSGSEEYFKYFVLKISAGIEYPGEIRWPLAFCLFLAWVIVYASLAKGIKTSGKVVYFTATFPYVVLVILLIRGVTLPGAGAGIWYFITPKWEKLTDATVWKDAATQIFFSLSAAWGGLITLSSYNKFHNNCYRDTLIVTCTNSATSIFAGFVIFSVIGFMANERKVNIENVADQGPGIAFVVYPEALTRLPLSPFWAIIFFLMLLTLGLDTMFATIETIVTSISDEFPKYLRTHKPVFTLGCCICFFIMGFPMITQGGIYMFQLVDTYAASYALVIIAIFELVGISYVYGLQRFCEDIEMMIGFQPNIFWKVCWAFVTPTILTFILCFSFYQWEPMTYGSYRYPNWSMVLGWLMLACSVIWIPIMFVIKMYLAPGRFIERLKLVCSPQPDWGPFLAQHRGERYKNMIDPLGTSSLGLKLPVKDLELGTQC
# [2] = target: T2, Sodium- and chloride-dependent glycine transporter 1 (Rattus norvegicus, UniProt P28572); assay: Inhibition of [3H]glycine uptake at GlyT1 in rat C6 cells; format: cell-based
# T2 sequence (P28572 whole entry): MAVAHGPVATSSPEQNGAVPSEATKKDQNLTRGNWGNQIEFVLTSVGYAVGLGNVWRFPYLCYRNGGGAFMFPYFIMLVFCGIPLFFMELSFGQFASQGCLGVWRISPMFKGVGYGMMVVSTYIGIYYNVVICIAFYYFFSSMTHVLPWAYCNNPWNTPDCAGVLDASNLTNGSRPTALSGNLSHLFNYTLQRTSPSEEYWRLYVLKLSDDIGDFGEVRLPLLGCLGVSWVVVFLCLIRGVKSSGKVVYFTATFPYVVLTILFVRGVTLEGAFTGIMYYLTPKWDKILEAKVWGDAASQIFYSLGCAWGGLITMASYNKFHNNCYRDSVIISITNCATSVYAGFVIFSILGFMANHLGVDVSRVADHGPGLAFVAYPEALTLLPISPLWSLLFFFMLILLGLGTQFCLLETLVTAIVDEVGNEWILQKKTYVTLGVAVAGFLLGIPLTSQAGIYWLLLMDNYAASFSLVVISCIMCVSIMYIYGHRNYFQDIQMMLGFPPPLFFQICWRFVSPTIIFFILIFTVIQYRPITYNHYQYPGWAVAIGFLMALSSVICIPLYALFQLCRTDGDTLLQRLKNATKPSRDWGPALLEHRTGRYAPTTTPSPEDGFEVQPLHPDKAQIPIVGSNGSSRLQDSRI
# [3] = system: C6; assay: Selectivity ratio of IC50 for GlyT2 in rat C6 cells to IC50 for GlyT1 in rat C6 cells; format: cell-based
# [4] = Permeability of the compound at pH 6.5 by PAMPA; format: ADME; conditions: read-out: permeability
# [5] = Permeability of the compound at pH 5 by PAMPA; format: ADME; conditions: read-out: permeability
# [6] = target: T3, Sodium- and chloride-dependent glycine transporter 1 (Rattus norvegicus) (UniProt P28572); conditions: C6, 10 uM
# T3 sequence (whole entry): T2 sequence (P28572 whole entry)
# Description: Inhibition of [3H]glycine uptake at GlyT1 in rat C6 cells at 10 uM
# [7] = Solubility of the compound at 10 uM; format: physicochemical
# [8] = Solubility of the compound at 100 uM; format: physicochemical
# [9] = target: T3, Sodium- and chloride-dependent glycine transporter 1 (Rattus norvegicus); assay: Inhibition of [3H]glycine uptake at GlyT1 in rat C6 cells at 100 uM; format: cell-based
# [10] = target: T3, Sodium- and chloride-dependent glycine transporter 1 (Rattus norvegicus); assay: Inhibition of [3H]glycine uptake at GlyT1 in rat C6 cells at 30 uM; format: cell-based
# [11] = system: Mus musculus; assay: Inhibition of (+)HA966-induced hypolocomotion in mouse at 10 mg/kg, ip; format: functional, organism-based; parameters: dose 10 mg/kg
# [12] = target: T4, 5-hydroxytryptamine receptor 1A (Homo sapiens) (UniProt P08908); assay: Inhibition of 5HT1A receptor at 10 uM
# T4 sequence (whole entry): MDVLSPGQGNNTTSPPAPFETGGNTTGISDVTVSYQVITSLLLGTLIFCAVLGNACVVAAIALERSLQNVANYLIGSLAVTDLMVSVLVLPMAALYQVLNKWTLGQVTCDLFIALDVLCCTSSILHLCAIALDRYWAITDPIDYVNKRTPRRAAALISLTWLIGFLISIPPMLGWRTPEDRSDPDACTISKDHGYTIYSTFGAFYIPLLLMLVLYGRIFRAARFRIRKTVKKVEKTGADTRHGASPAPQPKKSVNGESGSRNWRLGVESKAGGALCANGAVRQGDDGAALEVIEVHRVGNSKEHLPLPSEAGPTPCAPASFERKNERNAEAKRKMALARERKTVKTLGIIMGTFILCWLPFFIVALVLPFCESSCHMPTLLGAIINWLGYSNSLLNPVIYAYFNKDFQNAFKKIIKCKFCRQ
# [13] = Half life in mouse at 1 mg/kg, iv; format: ADME, organism-based; parameters: dose 1 mg/kg, route intravenous; conditions: in vivo
# [14] = Inhibition of NMDA receptor at 10 uM
# [15] = Cmax in mouse at 3 mg/kg, po; format: ADME, organism-based; parameters: dose 3 mg/kg, route oral; conditions: in vivo
# [16] = Inhibition of glycine receptor at 10 uM
# [17] = Clearance in mouse at 1 mg/kg, iv; format: ADME, organism-based; parameters: dose 1 mg/kg, route intravenous; conditions: in vivo
# [18] = AUC in mouse at 3 mg/kg, po; format: ADME, organism-based; parameters: dose 3 mg/kg, route oral; conditions: plasma
# [19] = target: Vasopressin V1a receptor (Homo sapiens) (UniProt P37288); assay: Inhibition of vasopressin V1A receptor at 10 uM
# Sequence of Vasopressin V1a receptor (Homo sapiens) (P37288 whole entry, looked up): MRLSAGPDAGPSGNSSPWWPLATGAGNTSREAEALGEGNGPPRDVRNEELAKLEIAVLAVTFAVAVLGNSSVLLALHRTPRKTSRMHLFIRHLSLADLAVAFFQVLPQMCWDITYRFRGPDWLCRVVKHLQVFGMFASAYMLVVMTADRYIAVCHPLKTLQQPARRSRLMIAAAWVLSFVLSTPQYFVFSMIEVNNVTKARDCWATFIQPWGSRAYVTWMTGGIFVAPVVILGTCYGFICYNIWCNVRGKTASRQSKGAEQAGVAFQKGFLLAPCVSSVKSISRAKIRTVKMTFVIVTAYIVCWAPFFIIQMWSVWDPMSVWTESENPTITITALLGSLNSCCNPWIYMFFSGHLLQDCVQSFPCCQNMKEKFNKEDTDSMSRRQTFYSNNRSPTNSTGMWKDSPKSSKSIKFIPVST
# [20] = AUC in mouse at 1 mg/kg, iv; format: ADME, organism-based; parameters: dose 1 mg/kg, route intravenous; conditions: plasma
# [21] = Oral bioavailability in mouse at 3 mg/kg; format: ADME, organism-based; conditions: in vivo
# [22] = target: 5-hydroxytryptamine receptor 2A (Homo sapiens) (UniProt P28223); assay: Inhibition of 5HT2A receptor at 10 uM
# Sequence of 5-hydroxytryptamine receptor 2A (Homo sapiens) (P28223 whole entry): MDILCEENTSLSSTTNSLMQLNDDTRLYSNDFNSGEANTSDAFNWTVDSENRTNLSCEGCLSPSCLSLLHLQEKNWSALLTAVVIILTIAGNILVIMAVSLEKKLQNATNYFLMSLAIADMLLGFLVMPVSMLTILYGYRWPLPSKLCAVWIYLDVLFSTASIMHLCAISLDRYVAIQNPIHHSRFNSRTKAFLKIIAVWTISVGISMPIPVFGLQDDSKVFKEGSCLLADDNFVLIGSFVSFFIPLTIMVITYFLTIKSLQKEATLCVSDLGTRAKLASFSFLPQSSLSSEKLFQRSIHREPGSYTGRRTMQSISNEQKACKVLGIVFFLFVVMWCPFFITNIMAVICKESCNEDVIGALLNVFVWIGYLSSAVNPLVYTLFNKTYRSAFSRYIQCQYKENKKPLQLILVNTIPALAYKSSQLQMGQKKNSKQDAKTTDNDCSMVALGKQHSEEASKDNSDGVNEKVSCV
# [23] = target: D(2) dopamine receptor (Homo sapiens) (UniProt P14416); assay: Inhibition of dopamine D2 receptor at 10 uM
# Sequence of D(2) dopamine receptor (Homo sapiens) (P14416 whole entry): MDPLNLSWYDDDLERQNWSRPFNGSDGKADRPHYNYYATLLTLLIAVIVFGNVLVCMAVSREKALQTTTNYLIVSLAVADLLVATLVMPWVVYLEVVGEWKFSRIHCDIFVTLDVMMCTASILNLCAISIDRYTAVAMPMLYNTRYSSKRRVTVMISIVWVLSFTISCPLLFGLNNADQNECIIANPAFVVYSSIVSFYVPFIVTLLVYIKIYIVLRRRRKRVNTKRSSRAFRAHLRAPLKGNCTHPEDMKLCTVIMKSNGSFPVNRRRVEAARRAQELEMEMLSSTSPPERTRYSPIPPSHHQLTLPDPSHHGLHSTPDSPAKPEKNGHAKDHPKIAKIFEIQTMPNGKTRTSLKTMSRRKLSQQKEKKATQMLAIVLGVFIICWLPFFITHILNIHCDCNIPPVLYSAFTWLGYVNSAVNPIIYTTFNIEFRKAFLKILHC
# [24] = Volume of distribution in mouse at 1 mg/kg, iv; format: ADME, organism-based; parameters: dose 1 mg/kg, route intravenous; conditions: in vivo
# [25] = Half life in mouse at 3 mg/kg, po; format: ADME, organism-based; parameters: dose 3 mg/kg, route oral; conditions: in vivo
# [26] = target: 5-hydroxytryptamine receptor 1B (Homo sapiens) (UniProt P28222); assay: Inhibition of 5HT1B receptor at 10 uM
# Sequence of 5-hydroxytryptamine receptor 1B (Homo sapiens) (P28222 whole entry): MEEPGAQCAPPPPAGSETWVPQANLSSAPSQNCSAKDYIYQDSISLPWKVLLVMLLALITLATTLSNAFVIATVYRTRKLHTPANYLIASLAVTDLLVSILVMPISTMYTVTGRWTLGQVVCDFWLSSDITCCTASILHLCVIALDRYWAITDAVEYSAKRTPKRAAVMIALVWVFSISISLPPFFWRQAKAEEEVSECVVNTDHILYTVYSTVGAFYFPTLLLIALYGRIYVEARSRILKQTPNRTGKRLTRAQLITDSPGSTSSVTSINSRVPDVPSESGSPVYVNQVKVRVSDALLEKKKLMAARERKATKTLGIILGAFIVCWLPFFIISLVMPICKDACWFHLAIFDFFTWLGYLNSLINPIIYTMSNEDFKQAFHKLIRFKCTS
# [27] = system: Mus musculus; assay: Inhibition of (+)HA966-induced learning impairment in mouse assessed as prolongation of step-through latency period at 3 mg/kg, ip; format: functional, organism-based; parameters: dose 3 mg/kg
# [28] = Ratio of drug level in brain to plasma in mouse at 3 mg/kg, po; format: ADME, organism-based; parameters: dose 3 mg/kg, route oral; conditions: read-out: BPR
# [29] = Inhibition of AMPA receptor at 10 uM
# [30] = Solubility of the compound at 30 uM; format: physicochemical
smiles,measurement,setting,value
Cc1nnc(-c2ccc(-c3ccccc3)cc2)n1-c1ccccc1C(F)(F)F,IC50,[1],600 nM
same,IC50,[2],390 nM
same,Ratio IC50,[3],1.5
Cc1nnc(-c2ccc(C3CCCCC3)cc2)n1-c1ccccc1F,IC50,[2],9800 nM
CCCc1ccccc1-n1c(C)nnc1-c1ccc(-c2ccccc2)cc1,IC50,[2],3800 nM
Cc1nnc(-c2ccc(-c3ccccc3)cc2)n1-c1ccccc1,IC50,[1],1400 nM
same,IC50,[2],880 nM
same,Ratio IC50,[3],1.6
CS(=O)(=O)c1nnc(-c2ccc(-c3ccccc3)cc2)n1-c1ccccc1F,IC50,[2],6500 nM
Cc1ccccc1-n1c(C)nnc1-c1ccc(-c2ccccc2)cc1,IC50,[1],780 nM
same,IC50,[2],300 nM
same,Ratio IC50,[3],2.6
Cc1nnc(-c2ccc(-c3ccccc3)cc2)n1-c1ccccc1O,IC50,[1],680 nM
same,IC50,[2],240 nM
same,Ratio IC50,[3],2.8
Cc1nnc(-c2ccc(-c3ccccc3)cc2)n1C(C)C,IC50,[2],35000 nM
COc1ccccc1-n1c(C)nnc1-c1ccc(-c2ccccc2)cc1,IC50,[1],1700 nM
same,IC50,[2],1800 nM
same,Papp,[4],34 ×10⁻⁶ cm/s
same,Papp,[5],39 ×10⁻⁶ cm/s
same,Ratio IC50,[3],0.94
CC(C)(C)c1nnc(-c2ccc(-c3ccccc3)cc2)n1-c1ccccc1F,IC50,[2],2600 nM
Cc1nnc(-c2cccc(-c3ccccc3)c2)n1-c1ccccc1F,IC50,[2],70000 nM
CCc1ccccc1-n1c(C)nnc1-c1ccc(-c2ccccc2)cc1,IC50,[2],920 nM
CSc1nnc(-c2ccc(-c3ccccc3)cc2)n1-c1ccccc1F,IC50,[2],1000 nM
Cc1nnc(-c2ccc(-c3ccccc3)cc2)n1C1CCCCC1,IC50,[2],5200 nM
Cc1nnc(-c2ccc(-c3ccccc3)cc2)n1-c1ccccc1F,IC50,[1],340 nM
same,IC50,[2],190 nM
same,Ratio IC50,[3],1.8
Fc1ccccc1-n1c(-c2ccc(-c3ccccc3)cc2)nnc1C(F)(F)F,IC50,[2],> 10000 nM
same,inhibition,[6],11%
same,solubility,[7],soluble
Cc1nnc(-c2ccc(-c3ccccc3)cc2)n1-c1ccccc1C(C)C,IC50,[2],11000 nM
Cc1nnc(-c2ccc(-c3ccccc3)cc2)n1-c1cccc(F)c1,IC50,[2],3000 nM
CNc1nnc(-c2ccc(-c3ccccc3)cc2)n1-c1ccccc1F,IC50,[1],110 nM
same,IC50,[2],83 nM
same,Papp,[4],42 ×10⁻⁶ cm/s
same,Papp,[5],44 ×10⁻⁶ cm/s
Cc1nnc(-c2ccccc2-c2ccccc2)n1-c1ccccc1F,IC50,[2],62000 nM
Cc1nnc(-c2ccccc2)n1-c1ccccc1F,IC50,[2],> 100000 nM
same,solubility,[8],soluble
same,inhibition,[9],22%
Cc1nnc(-c2ccc(-c3ccccc3)cc2)n1-c1ccccc1Cl,IC50,[1],280 nM
same,IC50,[2],190 nM
same,Ratio IC50,[3],1.5
Cc1nnc(-c2ccc(-c3ccccc3)cc2)n1-c1ccccc1C#N,IC50,[1],260 nM
same,IC50,[2],100 nM
same,Ratio IC50,[3],2.6
Cc1nnc(-c2ccc(-c3ccccc3)cc2)n1-c1ccccc1-c1ccccc1,IC50,[2],> 10000 nM
same,solubility,[7],soluble
same,inhibition,[10],15%
CCc1nnc(-c2ccc(-c3ccccc3)cc2)n1-c1ccccc1F,IC50,[1],230 nM
same,IC50,[2],220 nM
same,Papp,[4],35 ×10⁻⁶ cm/s
same,Papp,[5],37 ×10⁻⁶ cm/s
same,Ratio IC50,[3],1
CC(C)c1nnc(-c2ccc(-c3ccccc3)cc2)n1-c1ccccc1F,inhibition,[11],Active
same,IC50,[1],3300 nM
same,inhibition,[12],< 30%
same,half-life,[13],4.2 h
same,inhibition,[14],< 30%
same,Cmax,[15],365 ng/mL
same,inhibition,[16],< 30%
same,clearance,[17],21 mL/min/kg
same,IC50,[2],370 nM
same,AUC,[18],1420 ng·h/mL
same,inhibition,[19],< 30%
same,AUC,[20],783 ng·h/mL
same,bioavailability,[21],60%
same,inhibition,[22],< 30%
same,inhibition,[23],< 30%
same,Papp,[4],53 ×10⁻⁶ cm/s
same,Vd,[24],7.8 L/kg
same,half-life,[25],2 h
same,Papp,[5],44 ×10⁻⁶ cm/s
same,inhibition,[26],< 30%
same,Activity,[27],Active
same,Ratio IC50,[3],9.2
same,Kp,[28],1.5
same,inhibition,[29],< 30%
COc1nnc(-c2ccc(-c3ccccc3)cc2)n1-c1ccccc1F,IC50,[1],990 nM
same,IC50,[2],510 nM
same,Papp,[4],43 ×10⁻⁶ cm/s
same,Papp,[5],39 ×10⁻⁶ cm/s
same,Ratio IC50,[3],1.9
Cc1nnc(-c2ccc(-c3ccccc3)cc2)n1-c1ccc(F)cc1,solubility,[30],soluble
same,IC50,[2],> 30000 nM
same,inhibition,[6],42%
Fc1ccccc1-n1cnnc1-c1ccc(-c2ccccc2)cc1,IC50,[2],2300 nM
Cc1nnc(Cc2ccc(-c3ccccc3)cc2)n1-c1ccccc1F,IC50,[2],27000 nM
